In patent publication US10047084B2, “Imidazolone derivatives, pharmaceutical compositions and uses thereof” (BEIJING FORELANDPHARMA CO. LTD., priority 2013, dated 2018):

Experiments:
SK-BR3/BT474 = experiment: CTG cell survival assay, SK-BR3/BT474; format: cell-based; settings: SK-BR3/BT474 cells
Summary of the method: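 Cells were exposed to compounds in a 3-fold dilution series, with a top final concentration of 10 uM in 0.1% DMSO. Viable cells were quantified by CellTiter-Glo ATP luminescence.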

[1] = Pharmacokinetics after oral administration, Balb/c mice; format: in vivo; settings: mouse, plasma, 10 mg/kg
Method: (§1) 4. […] Blood was sampled before the administration and at 0.25 h, 0.5 h, 1 h, 2 h, 4 h, 6 h, 8 h, and 24 h after the administration.

[2] = Solubility test in common aqueous vehicles; format: physicochemical; settings: 25° C., pH = 3
[3] = Pharmacokinetics after oral administration, SD rat; format: in vivo; settings: plasma, 10 mg/kg
Method: as §1

Compound	EC50 (SK-BR3/BT474) [nM]	AUC [1] [ng·h/mL]	Cmax [1] [ng/mL]	half-life [1] [h]	concentration at 6 h ([1]; 6 h) [µM]	solubility ([2]; aqueous buffer, water) [µg/mL]	AUC [3] [ng·h/mL]	Cmax [3] [ng/mL]	half-life [3] [h]	concentration at 6 h [3] [µM]	solubility ([2]; aqueous with cosolvent or surfactant or cyclodextrin, 30% sulfobutyl-β-cyclodextrin) [µg/mL]
Cn1cc(-c2ccc(-c3ccc4ncc5c(c4c3)n(C3CCCN(S(C)(=O)=O)C3)c(=O)n5C)cn2)cn1 (stereo not shown) [Example 3, 3-methyl-8-(6-(1-methyl-1H-pyrazol-4-yl)pyridin-3-yl)-1-(1-(methanesulfonyl)piperidin-3-yl)-1H-imidazo[4,5-c]quinolin-2(3H)-one]	< 100										
Cn1cc(-c2ccc(-c3ccc4ncc5c(c4c3)n([C@H]3CC[C@@H](O)CC3)c(=O)n5C)cn2)cn1 [Example 18, 1-((1s,4s)-4-hydroxycyclohexyl)-3-methyl-8-(6-(1-methyl-1H-pyrazol-4-yl)pyridin-3-yl)-1H-imidazo[4,5-c]quinolin-2(3H)-one]	< 50	10000 to 100000	5000 to 10000	1 to 4	1 to 10	> 5000					
Cn1cc(-c2ccc(-c3ccc4ncc5c(c4c3)n([C@H]3CCN(S(C)(=O)=O)C3)c(=O)n5C)cn2)cn1 [Example 28, (S)-3-methyl-8-(6-(1-methyl-1H-pyrazol-4-yl)pyridin-3-yl)-1-(1-(methanesulfonyl)pyrrolidin-3-yl)-1H-imidazo[4,5-c]quinolin-2(3H)-one]	< 50						10000 to 100000	800 to 4000	4 to 10	1 to 10	> 3000
Cn1cc(-c2ccc(-c3ccc4ncc5c(c4c3)n([C@@H]3CCCN(S(C)(=O)=O)C3)c(=O)n5C)cn2)cn1 [Example 31, (R)-3-methyl-8-(6-(1-methyl-1H-pyrazol-4-yl)pyridin-3-yl)-1-(1-(methanesulfonyl)piperidin-3-yl)-1H-imidazo[4,5-c]quinolin-2(3H)-one]	< 100					> 5000	10000 to 100000	800 to 4000	4 to 10	1 to 10	
